Measurements taken from PubChem BioAssay AID1963447 (Molecular Pharmacology Branch, DTP, NCI, 2024).

Tested on: 885512-296-R-J2-PDC complex spheroid growth, % test/control
Assay: Anticancer human tumor 885512-296-R-J2-PDC patient-derived breast carcinoma cell line growth inhibition [Asc]
Settings: for IC50: curve of first compound; for viability, T/C: stronger effect = lower value
Procedure, shortened: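 Stromal components (HUVEC and hMSC) are co-assembled with the cancer cells into multicellular spheroids. Drugs are then added singly or paired, at concentrations falling by half-log increments from a clinically achievable maximum, capped at 10 microM without known Cmax.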

[1] = second compound 0.01 µM, first compound 0.0316 µM
[2] = second compound 0.01 µM, first compound 0.1 µM
[3] = second compound 0.01 µM, first compound 0.316 µM
[4] = second compound 0.01 µM, first compound 1 µM
[5] = second compound 0.01 µM, first compound 3.16 µM
[6] = second compound 0.01 µM, first compound 10 µM
[7] = second compound 0.0316 µM, first compound 0.0316 µM
[8] = second compound 0.0316 µM, first compound 0.1 µM
[9] = second compound 0.0316 µM, first compound 0.316 µM
[10] = second compound 0.0316 µM, first compound 1 µM
[11] = second compound 0.0316 µM, first compound 3.16 µM
[12] = second compound 0.0316 µM, first compound 10 µM
[13] = second compound 0.1 µM, first compound 0.0316 µM
[14] = second compound 0.1 µM, first compound 0.1 µM
[15] = second compound 0.1 µM, first compound 0.316 µM
[16] = second compound 0.1 µM, first compound 1 µM
[17] = second compound 0.1 µM, first compound 3.16 µM
[18] = second compound 0.1 µM, first compound 10 µM
[19] = second compound 0.316 µM, first compound 0.0316 µM
[20] = second compound 0.316 µM, first compound 0.1 µM
[21] = second compound 0.316 µM, first compound 0.316 µM
[22] = second compound 0.316 µM, first compound 1 µM
[23] = second compound 0.316 µM, first compound 3.16 µM
[24] = second compound 0.316 µM, first compound 10 µM
[25] = second compound 1 µM, first compound 0.0316 µM
[26] = second compound 1 µM, first compound 0.1 µM
[27] = second compound 1 µM, first compound 0.316 µM
[28] = second compound 1 µM, first compound 1 µM
[29] = second compound 1 µM, first compound 3.16 µM
[30] = second compound 1 µM, first compound 10 µM
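Note: spheroids exposed to compounds for seven days.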
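Throughout, for viability, T/C: 100% = DMSO vehicle control wells.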

| IC50 (second compound 0.01 µM) [µM] | IC50 (second compound 0.0316 µM) [µM] | IC50 (second compound 0.1 µM) [µM] | IC50 (second compound 0.316 µM) [µM] | IC50 (second compound 1 µM) [µM] | SMILES | viability, T/C [1] [%] | viability, T/C [2] [%] | viability, T/C [3] [%] | viability, T/C [4] [%] | viability, T/C [5] [%] | viability, T/C [6] [%] | viability, T/C [7] [%] | viability, T/C [8] [%] | viability, T/C [9] [%] | viability, T/C [10] [%] | viability, T/C [11] [%] | viability, T/C [12] [%] | viability, T/C [13] [%] | viability, T/C [14] [%] | viability, T/C [15] [%] | other results |
| --- | --- | --- | --- | --- | --- | --- | --- | --- | --- | --- | --- | --- | --- | --- | --- | --- | --- | --- | --- | --- | --- |
| > 10 | > 10 | > 10 | > 10 | > 10 | C#Cc1c(F)ccc2cc(O)cc(-c3ncc4c(N5CC6CCC(C5)N6)nc(OCC56CCCN5CC(F)C6)nc4c3F)c12 (stereo not given) + CNC(C)C(=O)NC1CN(S(=O)(=O)c2cccc(S(=O)(=O)N3CCC4CCC(C(=O)NC(c5ccccc5)c5ccccc5)N4C(=O)C(NC(=O)C(C)NC)C3)c2)CCC2CCC(C(=O)NC(c3ccccc3)c3ccccc3)N2C1=O | 94.5 | 111 | 83.5 | 69.7 | 89.9 | 94.5 | 102 | 104 | 96.6 | 110 | 108 | 91.5 | 102 | 97 | 109 | viability, T/C [16]: 99.4%; viability, T/C [17]: 108%; viability, T/C [18]: 86.9%; viability, T/C [19]: 112%; viability, T/C [20]: 109%; viability, T/C [21]: 104%; viability, T/C [22]: 112%; viability, T/C [23]: 107%; viability, T/C [24]: 86.7%; viability, T/C [25]: 107%; viability, T/C [26]: 108%; viability, T/C [27]: 116%; viability, T/C [28]: 105%; viability, T/C [29]: 105%; viability, T/C [30]: 94.6% |
| 2.66 | 2.29 | 2.45 | 2.24 | 2.24 | C=C(F)C(=O)N1CCN(c2nc(OCC3CCCN3C)nc3c2CCN(c2cccc4cccc(Cl)c24)C3)CC1CC#N (stereo not given) + CNC(C)C(=O)NC1CN(S(=O)(=O)c2cccc(S(=O)(=O)N3CCC4CCC(C(=O)NC(c5ccccc5)c5ccccc5)N4C(=O)C(NC(=O)C(C)NC)C3)c2)CCC2CCC(C(=O)NC(c3ccccc3)c3ccccc3)N2C1=O | 88.6 | 91.8 | 95.7 | 84.8 | 43.8 | 0.11 | 100 | 101 | 100 | 99.7 | 30.7 | 0.3 | 105 | 102 | 102 | viability, T/C [16]: 104%; viability, T/C [17]: 34.9%; viability, T/C [18]: 0.09%; viability, T/C [19]: 110%; viability, T/C [20]: 103%; viability, T/C [21]: 113%; viability, T/C [22]: 103%; viability, T/C [23]: 27.5%; viability, T/C [24]: 0.09%; viability, T/C [25]: 114%; viability, T/C [26]: 113%; viability, T/C [27]: 115%; viability, T/C [28]: 95.3%; viability, T/C [29]: 30.5%; viability, T/C [30]: 0.38% |
